Reference: PMC10584170, “Machine learning-based phenotypic imaging to characterise the targetable biology of Plasmodium falciparum male gametocytes for the development of transmission-blocking antimalarials” (PLOS Pathogens, 2023)
Like-named read-outs stand apart in the source and are kept apart here.

Tests used:
[1] = system: P. falciparum male gametocytes; test: P. falciparum Dual Gamete Formation Assay (PfDGFA), male readout (exflagellation); type: cell-based, Plasmodium falciparum NF54; details: for Activity: hit = >50% inhibition in male or female readout in at least 3 replicates, 0 = no class assigned; for inhibition at 2 µM: 24h preincubation with gametocytes
Method: (§1) P. falciparum NF54 (originally isolated from an imported malaria case in the Netherlands in the 1980s; BEI Resources, cat. No. MRA-1000) strain asexual parasites were maintained between 0.3–5% parasitaemia by regular passage in complete culture medium (RPMI supplemented with 25 mM HEPES, 50 μg ml^−1 hypoxanthine, 4.8 g l^−1 NaHCO3, 2mM L-glutamine, 5% pooled type AB serum, 0.5% Albumax II (Gibco)) at 4% haematocrit in washed whole blood (National Blood and Transfusion Service or Centro de Transfusiones de la Comunidad de Madrid CTCM) under a 1% O2/3% CO2/96% N2 environment. Gametocytes were induced by seeding culture flasks at 2% parasitaemia/4% haematocrit and subjecting them to daily medium changes for 14 days whilst maintaining a temperature of 37°C at all times. On Day 14, the maturity of gametocytes was assessed by quantifying male gametogenesis (exflagellation). A 20 μl sample of gametocyte culture was mixed with equal volume of ookinete medium (complete culture medium supplemented with 0.1 μM xanthurenic acid) at room temperature and transferred to a haemocytometer. After 20 min at room temperature, exflagellation was accurately quantified as described in Delves et al. 2016 [17].
(§2) The Pf DGFA was performed as described in Delves et al. 2016 [17]. […] Plates were then incubated for 24 h at 37°C in a humidified box under a 1% O2/3% CO2/96% N2 gas mix. Gametogenesis was triggered by addition of 10 μl per well of ookinete medium + 0.27 μg ml^-1 Cy3-labelled anti-Pfs25 antibody. Plates were incubated on a metal block at 4°C for 4 min to ensure even cooling, then 28°C for a further 4 min. Exflagellation was recorded by capturing 10 frames over 1 s under brightfield illumination using a x4 objective with a 1.5x zoom (effectively x6) attached to an automated Nikon Ti fluorescence microscope. After recording exflagellation, plates were incubated for a further 24 h in the dark at 28°C to ensure maximal expression of Pfs25 by female gametes. The plates were then returned to the microscope and female gametes imaged at x6 using fluorescence microscopy.
(§3) Exflagellation centres and female gametes were quantified using custom image analysis pipelines developed within ICY Bioimage Analysis (https://icy.bioimageanalysis.org/).

[2] = system: P. falciparum female gametocytes; test: P. falciparum Dual Gamete Formation Assay (PfDGFA), female readout (Pfs25-positive female gametes); type: cell-based, Plasmodium falciparum NF54; details: for inhibition at 2 µM: 24h preincubation with gametocytes
Method: as §1, §2, §3

[3] = PfDGFA at 2µM, 24h preincubation with gametocytes prior to induction of gametogenesis, replicate R1
[4] = PfDGFA at 2µM, 24h preincubation with gametocytes prior to induction of gametogenesis, replicate R4
[5] = PfDGFA at 2µM, 24h preincubation, average of replicates
[6] = PfDGFA at 2µM, 24h preincubation with gametocytes prior to induction of gametogenesis, replicate R3
[7] = 2µM, 24h preincubation with gametocytes prior to induction of gametogenesis, average of replicates
[8] = 2µM, 24h preincubation with gametocytes prior to induction of gametogenesis, replicate R1
[9] = 2µM, 24h preincubation with gametocytes prior to induction of gametogenesis, replicate R3
[10] = 2µM, 24h preincubation with gametocytes prior to induction of gametogenesis, replicate R4
[11] = 2µM, 24h preincubation, number of replicates with >50% inhibition in the male readout
[12] = 2µM, 24h preincubation, number of replicates with >50% inhibition in the female readout
[13] = 2µM, 24h preincubation, hits selected on >50% inhibition in the male readout across replicates
[14] = PfDGFA at 2µM, 24h preincubation
[15] = 2µM, 24h preincubation, hits selected on >50% inhibition in the female readout across replicates

Row | SMILES | Average inhibition male (%) [1, 7] | % inhibition male (individual replicates) R1 [1, 8] | % inhibition male (individual replicates) R3 [1, 9] | % inhibition male (individual replicates) R4 [1, 10] | HitlevelM [1, 11] | Average inhibition female (%) [2, 7] | % inhibition female (individual replicates) R1 [2, 8] | % inhibition female (individual replicates) R3 [2, 9] | % inhibition female (individual replicates) R4 [2, 10] | HitlevelF [2, 12] | HitlevelM [1, 13] | Activity [1, 14] | HitlevelF [2, 15] | other results
1 | COc1cc(C(=O)NC2CCc3ccccc32)cc(Cl)c1OC (centres unmarked) [TCMDC-124601] | – | – | – | – | – | – | – | – | – | – | – | – | – | % inhibition male (individual replicates) R1 [1, 3]: 0.65%; % inhibition male (individual replicates) R4 [1, 4]: 7.9%; Average inhibition male (%) [1, 5]: 1.1%; % inhibition female (individual replicates) R1 [2, 3]: 1.9%; % inhibition female (individual replicates) R3 [2, 6]: -2.4%; % inhibition female (individual replicates) R4 [2, 4]: 1.9%; Average inhibition female (%) [2, 5]: -0.8%
2 | CN1CCC(N2CCC(Oc3cccc(C(=O)NCCCC4CCCC4)c3)CC2)CC1 [TCMDC-124677] | 46.8% | 55.2% | 20.7% | 57.6% | 3 | 28.5% | 33.3% | 20.8% | 15.0% | 0 | – | – | – | –
3 | Cc1ccc(-n2cc(CNCC3CCN(CCO)CC3)c(-c3ccc(F)cc3)n2)cc1 [TCMDC-124689] | 53.6% | 49.0% | – | 58.1% | 2 | 19.9% | 20.1% | 19.4% | 10.0% | 0 | – | – | – | –
4 | O=C(c1ccc([N+](=O)[O-])o1)N1CCN(c2nc3c(F)cc(F)cc3s2)CC1 [TCMDC-125149] | 6.8% | 35.5% | -37.1% | -11.8% | – | 6.5% | 10.3% | -4.5% | 0.07% | – | 0 | 0 | 0 | –
5 | CNCCCNCc1ccc(-c2ccc(F)c(Cl)c2)o1.Cl [TCMDC-125237] | 15.1% | 6.0% | – | 19.5% | – | 13.7% | 17.7% | 9.1% | 15.1% | – | 0 | 0 | 0 | –
6 | COCCn1c(Sc2ncnc3sccc23)nc2ccccc21 [TCMDC-125258] | – | – | – | – | – | – | – | – | – | – | – | – | – | Selectivity Ratio M ([1]; HepG2 Tox50 versus male IC50): 81.39; inhibition at 2 µM ([1]; Plasmodium falciparum, PfDGFA at 2µM, average of replicates, read-out: Average inhibition male (%)): 69.9%; inhibition at 2 µM ([1]; Plasmodium falciparum, PfDGFA at 2µM, replicate R1, read-out: % inhibition male (individual replicates) R1): 86.4%; inhibition at 2 µM ([1]; Plasmodium falciparum, PfDGFA at 2µM, replicate R2, read-out: % inhibition male (individual replicates) R2): 73.7%; inhibition at 2 µM ([1]; Plasmodium falciparum, PfDGFA at 2µM, replicate R3, read-out: % inhibition male (individual replicates) R3): 49.8%; inhibition at 2 µM ([1]; Plasmodium falciparum, PfDGFA at 2µM, replicate R4, read-out: % inhibition male (individual replicates) R4): 69.6%; IC50 ([1]; Plasmodium falciparum, PfDGFA, 24 h incubation with gametocytes before induction, exflagellation readout, read-out: Male IC50): 1.23 µM; HitlevelM ([1]; number of replicates with >50% inhibition in the male readout, 2µM): 3; Selectivity ratio F ([2]; HepG2 Tox50 versus female IC50): 94.48; inhibition at 2 µM ([2]; Plasmodium falciparum, PfDGFA at 2µM, average of replicates, read-out: Average inhibition female (%)): 60.4%; inhibition at 2 µM ([2]; Plasmodium falciparum, PfDGFA at 2µM, replicate R1, read-out: % inhibition female (individual replicates) R1): 48.4%; inhibition at 2 µM ([2]; Plasmodium falciparum, PfDGFA at 2µM, replicate R2, read-out: % inhibition female (individual replicates) R2): 75.4%; inhibition at 2 µM ([2]; Plasmodium falciparum, PfDGFA at 2µM, replicate R3, read-out: % inhibition female (individual replicates) R3): 37.4%; inhibition at 2 µM ([2]; Plasmodium falciparum, PfDGFA at 2µM, replicate R4, read-out: % inhibition female (individual replicates) R4): 80.3%; IC50 ([2]; Plasmodium falciparum, PfDGFA, 24 h incubation with gametocytes before induction, female gamete readout, read-out: Female IC50): 1.06 µM; HitlevelF ([2]; number of replicates with >50% inhibition in the female readout, 2µM): 2
7 | NC(=O)c1ccsc1NC(=O)CNC(c1ccccc1)c1ccc(Cl)cc1 (centres unmarked) [TCMDC-125330] | – | – | – | – | – | – | – | – | – | – | – | – | – | % inhibition male (individual replicates) R1 [1, 3]: -5.4%; % inhibition male (individual replicates) R3 [1, 6]: -28.2%; % inhibition male (individual replicates) R4 [1, 4]: -28.5%; Average inhibition male (%) [1, 5]: -19.7%; % inhibition female (individual replicates) R1 [2, 3]: 0.32%; % inhibition female (individual replicates) R3 [2, 6]: -9.3%; % inhibition female (individual replicates) R4 [2, 4]: 6.9%; Average inhibition female (%) [2, 5]: 1.5%
8 | O=C(Nc1nc(-c2ccccn2)cs1)c1ccc(S(=O)(=O)N2CCc3ccccc32)cc1 [TCMDC-125432] | -21.9% | -19.8% | -49.6% | -25.8% | 0 | 23.2% | 27.4% | 14.7% | 30.9% | 0 | – | – | – | –
9 | COc1ccc(-c2csc3nc(C)nc(Cl)c23)cc1OC [TCMDC-125523] | -3.5% | -8.3% | -15.7% | 6.2% | – | 3.7% | 4.5% | -29.0% | 16.0% | – | 0 | 0 | 0 | –
